# In PMC3465347, “Regulation of NF-κB Activation through a Novel PI-3K-Independent and PKA/Akt-Dependent Pathway in Human Umbilical Vein Endothelial Cells” (PLoS ONE, 2012):
# “Also recorded” adds a separate entry of the source.
# What was measured:
# [1] = Aqueous solubility of MPG derivatives; format: physicochemical
# Method: Stock solutions of MPG and its derivatives (Tables S1, S2, S3) were prepared either in dimethylsulphoxide (DMSO) or cell culture medium. MPG and its derivatives were diluted to working concentrations in cell culture medium.
# [2] = system: ICAM-1 mRNA in endothelial cells; experiment: RT-PCR of ICAM-1 transcript; format: cell-based, human; settings: 400 µM pretreatment, TNF-α 10 ng/ml 4 h
# Method: (§1) In order to examine whether MPTAG reduced the mRNA transcript levels of cell adhesion molecules genes, the endothelial cells were pretreated with 400 µM MPTAG for 2 h before induction with TNF-α for 4 h followed by RT-PCR. RNA was isolated from MPTAG-treated cells according to a modified guanidinium thiocyanate procedure. The expression of the transcripts for ICAM-1, VCAM-1 and E-selectin was evaluated by RT-PCR [45]. β-Actin levels expressed under similar conditions were used as a loading control.
# [3] = system: VCAM-1 mRNA in endothelial cells; experiment: RT-PCR of VCAM-1 transcript; format: cell-based, human; settings: 400 µM pretreatment, TNF-α 10 ng/ml 4 h
# Method: as §1
# [4] = system: E-selectin mRNA in endothelial cells; experiment: RT-PCR of E-selectin transcript; format: cell-based, human; settings: 400 µM pretreatment, TNF-α 10 ng/ml 4 h
# Method: as §1
# [5] = system: NF-κB DNA-binding activity in HUVECs; experiment: NF-κB activation assay (EMSA) in nuclear extracts; format: cell-based, human
# Method: The endothelial cells were subjected to the indicated treatments followed by induction with TNF-α for indicated time points or 30 mins. The cells were then washed with PBS and dislodged using a cell scraper. The cytoplasmic and nuclear extracts were prepared as described previously, [46].
# NF-κB activation in the nuclear extracts of human endothelial cells was assessed by electrophoretic mobility shift assay (EMSA) as described previously, [46]. For supershift experiment, nuclear extracts prepared from unstimulated and TNF-α-stimulated cells were incubated with antibodies against the p50 or p65 subunit of NF-κB or -α-tubulin for 15 mins at 37°C before the complex was analyzed by EMSA. Addition of equal amount of radioactive-labelled probe to all the samples was indicated by the similar intensity of the unincorporated probe observed towards the end of the gel.
# [6] = system: NF-κB-dependent reporter gene transcription in HUVECs; experiment: NF-κB reporter gene assay (luciferase); format: cell-based, human; settings: 400 µM, TNF-α 10 ng/ml
# Method: NF-κB dependent reporter gene transcription was measured as per the instructions of the luciferase assay kit (Promega, USA). Briefly, human endothelial cells ([…]) were plated in 96-well plates. HUVECs were transiently transfected by electroporation with a NF-κB-containing luciferase reporter gene plasmid for 24 h. After transfection, cells were washed and treated with 400 µM MPTAG for 24 h. For the TNF-α stimulation, cells were treated with 10 ng/ml of TNF-α for another 24 h. Supernatants after cell lysis were assayed for luciferase activity. The mean value for cells treated with no MPTAG and no TNF-α was set to 1, and -fold differences were determined by comparing values against this set value. Cells were co-transfected with a control vector expressing β-galactosidase under SV40 promoter to normalize transfection efficiency.
# [7] = system: TNF-α-induced IKK-β activation in HUVECs; experiment: IKK-β activation in treated cells (immunoprecipitation, kinase assay); format: cell-based, human
# Method: (§2) In brief, confluent HUVECs were incubated with or without MPTAG and were stimulated with TNF-α (10 ng/ml) for 15 mins. The cells were washed and lysed in Lysis buffer containing 50 mM HEPES, pH 7.6, 10% glycerol, 1 mM sodium orthovanadate, 100 mM NaCl, 1% NP-40, 1 mM EDTA and protease inhibitor cocktail and allowed to swell on ice for 45 mins. Following centrifugation at 13,000 rpm for 45 mins, the supernatants were collected as “total cell extracts” and stored at −70°C. Immunoprecipitation was performed as per the instructions of Protein G immunoprecipitation kit (Sigma Aldrich, USA). Endogenous IKK complexes were immunoprecipitated in the following reaction mixtures: 100–300 µg of total cell extracts were incubated with 2–4 µg anti-IKK-β or PKAα antibody in 100 µl 1× IP buffer. After incubation for 16 h at 4°C with constant shaking, 50 µl of activated protein G beads were added and the mixture was incubated under rotation for an additional 3 h at 4°C.
# Kinase assay was performed as previously described. Immunoprecipitates from 100 µg of total cell extracts were used for kinase assays. The reaction mixture consisted of kinase buffer (20 mM Tris Cl, pH 7.6, 1 mM EDTA, 1 mM sodium orthovanadate, 20 mM MgCl2, 2 mM DTT), 2 µg GST-IκBα(1–54), 5 µM ATP and 1 µCi [γ ^32P] ATP in a volume of 30 µl. […]
# [8] = system: association of Akt with IKK-β; experiment: Akt/IKK-β association (co-immunoprecipitation); format: cell-based, human; settings: dose-dependent and time-dependent
# Method: as §2
# Nuclear and cytoplasmic extracts were fractionated on SDS-PAGE with equal amount of proteins per well and transferred onto PVDF membranes and those membranes were incubated with appropriate primary antibodies and treated with HRP conjugated secondary antibodies followed by detection with DAB-H2O2 system. β-tubulin, α-actin and Lamin B1 were used as loading controls. […]
# [9] = system: p38 MAPK; experiment: p38 MAPK activation western blot; format: cell-based, human; settings: MPTAG pretreatment
# [10] = system: PI-3K; experiment: PI-3K activity assay; format: cell-based, human; settings: pretreatment, HUVECs
# Excerpt: The catalytic domain of PI-3K was immunoprecipitated from the stimulated and unstimulated endothelial in presence and absence of various compound treatment using an anti-p85α (N-18) antibody. The immunoprecipated proteins were subjected to kinase activity assay using a PI substrate, diC8 followed by detection of the PI(3)P as per the instructions of the Class III PI-3kinase kit (Echelon, USA).
# [11] = target: T1, PKA (Homo sapiens, UniProt P17612); experiment: PKA activity assay; format: cell-based
# T1 construct: PKA was immunoprecipitated from the total cell lysates of unstimulated and TNF-α-stimulated endothelial cells; endogenous in cells; host or cells: HUVEC (treated with MPTAG, SQ 22536, H-89 ± TNF-α), anti-PKAα immunoprecipitate
# Excerpt: PKA was immunoprecipitated from the total cell lysates of unstimulated and TNF-α-stimulated endothelial cells in presence and absence of treatment with agents indicated in Figure 7 using anti-PKAα (W-18) antibody. The immunoprecipates were subjected to kinase activity assay using a Bisamide Rhodamine 110 peptide substrate as per the instructions of the Profluor PKA assay kit (Promega, USA).
compound,measurement,setting,value
"CC(=O)OC[C@H]1O[C@@H](Oc2c(C)occc2=O)[C@H](OC(C)=O)[C@@H](OC(C)=O)[C@@H]1OC(C)=O [MPTAG, 2-methyl-pyran-4-one-3-O-β-D-2′,3′,4′,6′-tetra-O-acetyl glucopyranoside]",water solubility,[1],completely water soluble
same,TNF-α-induced ICAM-1 mRNA level,[2],significantly reduced
same,TNF-α-induced VCAM-1 mRNA level,[3],significantly reduced
same,TNF-α-induced E-selectin mRNA level,[4],significantly reduced
same,"TNF-α-induced NF-κB activation (EMSA), H-89 treatment preceding MPTAG","[5]; H-89 then MPTAG, TNF-α",remained increased
same,TNF-α-induced NF-κB DNA-binding activity / NF-κB activation (EMSA),"[5]; MPTAG 400 µM, dose-dependent",almost complete inhibition; also recorded: significantly inhibited
same,"TNF-α-induced NF-κB activation (EMSA), MPTAG treatment preceding H-89","[5]; MPTAG then H-89, TNF-α",inhibited
same,basal NF-κB activation,[5]; without TNF-α stimulation,no significant inhibitory effect
same,TNF-α-induced NF-κB activation (EMSA) in presence or absence of wortmannin,"[5]; wortmannin before MPTAG, then TNF-α",inhibited similarly
same,NF-κB-regulated luciferase activity,[6],significantly inhibited
same,TNF-α-induced activation of IKK-β,"[7]; pretreatment of cells, dose-dependent",appreciably suppressed
same,protein levels of IKK-β,[7]; western blot,neither TNF-α nor MPTAG affected
same,TNF-α-induced association of Akt with IKK-β,[8],significantly prevented
same,TNF-α-induced p38 activation,[9],no effect
same,TNF-α-induced PI-3K activity,[10],no effect
same,"PKA activity in unstimulated HUVECs, MPTAG and SQ 22536 added together",[11]; MPTAG + SQ 22536,remained increased
same,PKA activity in TNF-α-stimulated HUVECs,[11]; MPTAG alone or together with SQ 22536,restored PKA activity
